PubChem BioAssay AID2060902 (Molecular Pharmacology Branch, DTP, NCI, 2025)

Test system: 485368-065-R3-J5-PDC spheroids with HUVEC/MSC, viability
Test: Anticancer human tumor 485368-065-R3-J5-PDC patient-derived pancreatic carcinoma cell line growth inhibition [RAS]
Conditions: for IC50: curve of first compound; for viability, T/C: stronger effect = lower value
Procedure, shortened: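 Tumour cells grown as complex spheroids with HUVEC endothelial cells and mesenchymal stem cells, treated with RAS pathway inhibitor combinations. Each agent spans half-log steps from near clinical Cmax, or 10 microM where Cmax is unknown.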
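Also: spheroids exposed to agents for seven days before readout.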

For `C=CC(=O)N1CCN(c2nc(OCC3CCCN3C)nc3c(F)c(-c4nc(N)cc(C)c4C(F)(F)F)c(Cl)cc23)C(C)C1` (centres undefined) + CCn1c(-c2cccnc2C(C)OC)c2c3cc(ccc31)N1CCOC(CC(NC(=O)C(C(C)C)N(C)C(=O)C3(F)CCN(C(=O)C#CC(C)(C)N(C)C)CC3)C(=O)N3CCCC(N3)C(=O)OCC(C)(C)C2)C1, the IC50 (second compound 0.000949 µM) was greater than 1000 nM, the IC50 (second compound 0.003 µM) was greater than 1000 nM and the IC50 (second compound 0.00949 µM) was greater than 1000 nM. For the same compound, the IC50 (second compound 0.03 µM) was greater than 1000 nM, the IC50 (second compound 0.0949 µM) was greater than 1000 nM and the IC50 (second compound 0.3 µM) was greater than 1000 nM. For the same compound, the viability, T/C (second compound 0.000949 µM, first compound 0.00316 µM) was 113%, the viability, T/C (second compound 0.000949 µM, first compound 0.01 µM) was 96% and the viability, T/C (second compound 0.000949 µM, first compound 0.0316 µM) was 102%. It also gave a viability, T/C (second compound 0.000949 µM, first compound 0.1 µM) of 99.8%, a viability, T/C (second compound 0.000949 µM, first compound 0.316 µM) of 105% and a viability, T/C (second compound 0.000949 µM, first compound 1 µM) of 97.5%. The viability, T/C (second compound 0.003 µM, first compound 0.00316 µM) was 110%, the viability, T/C (second compound 0.003 µM, first compound 0.01 µM) was 99.5% and the viability, T/C (second compound 0.003 µM, first compound 0.0316 µM) was 107%. It also gave a viability, T/C (second compound 0.003 µM, first compound 0.1 µM) of 101%, a viability, T/C (second compound 0.003 µM, first compound 0.316 µM) of 119% and a viability, T/C (second compound 0.003 µM, first compound 1 µM) of 107%. It also gave a viability, T/C (second compound 0.00949 µM, first compound 0.00316 µM) of 95.9%, a viability, T/C (second compound 0.00949 µM, first compound 0.01 µM) of 104% and a viability, T/C (second compound 0.00949 µM, first compound 0.0316 µM) of 97.1%. It also gave a viability, T/C (second compound 0.00949 µM, first compound 0.1 µM) of 103%, a viability, T/C (second compound 0.00949 µM, first compound 0.316 µM) of 110% and a viability, T/C (second compound 0.00949 µM, first compound 1 µM) of 104%. For the same compound, the viability, T/C (second compound 0.03 µM, first compound 0.00316 µM) was 87.6%, the viability, T/C (second compound 0.03 µM, first compound 0.01 µM) was 99.6% and the viability, T/C (second compound 0.03 µM, first compound 0.0316 µM) was 97.3%. It also gave a viability, T/C (second compound 0.03 µM, first compound 0.1 µM) of 106%, a viability, T/C (second compound 0.03 µM, first compound 0.316 µM) of 107% and a viability, T/C (second compound 0.03 µM, first compound 1 µM) of 108%. It also gave a viability, T/C (second compound 0.0949 µM, first compound 0.00316 µM) of 99.4%, a viability, T/C (second compound 0.0949 µM, first compound 0.01 µM) of 99.8% and a viability, T/C (second compound 0.0949 µM, first compound 0.0316 µM) of 108%. For the same compound, the viability, T/C (second compound 0.0949 µM, first compound 0.1 µM) was 93.9%, the viability, T/C (second compound 0.0949 µM, first compound 0.316 µM) was 115% and the viability, T/C (second compound 0.0949 µM, first compound 1 µM) was 93.1%. It also gave a viability, T/C (second compound 0.3 µM, first compound 0.00316 µM) of 96.2%, a viability, T/C (second compound 0.3 µM, first compound 0.01 µM) of 104% and a viability, T/C (second compound 0.3 µM, first compound 0.0316 µM) of 95.6%. For the same compound, the viability, T/C (second compound 0.3 µM, first compound 0.1 µM) was 106%, the viability, T/C (second compound 0.3 µM, first compound 0.316 µM) was 105% and the viability, T/C (second compound 0.3 µM, first compound 1 µM) was 94.8%.

With `CC1(C)CCC(Nc2ncc(C(F)(F)F)c(-c3c[nH]c4c(P(C)(C)=O)c(C#N)ccc34)n2)CN1` (centres undefined) + CCn1c(-c2cccnc2C(C)OC)c2c3cc(ccc31)N1CCOC(CC(NC(=O)C(C(C)C)N(C)C(=O)C3(F)CCN(C(=O)C#CC(C)(C)N(C)C)CC3)C(=O)N3CCCC(N3)C(=O)OCC(C)(C)C2)C1 the IC50 (second compound 0.000949 µM) was 9.04 nM, the IC50 (second compound 0.003 µM) was 15.7 nM and the IC50 (second compound 0.00949 µM) was 8.62 nM. It also gave an IC50 (second compound 0.03 µM) of 7.35 nM, an IC50 (second compound 0.0949 µM) of 13.6 nM and an IC50 (second compound 0.3 µM) of 17.6 nM. It also gave a viability, T/C (second compound 0.000949 µM, first compound 0.000949 µM) of 116%, a viability, T/C (second compound 0.000949 µM, first compound 0.003 µM) of 85.7% and a viability, T/C (second compound 0.000949 µM, first compound 0.00949 µM) of 48%. For the same compound, the viability, T/C (second compound 0.000949 µM, first compound 0.03 µM) was 47.1%, the viability, T/C (second compound 0.000949 µM, first compound 0.0949 µM) was 43.6% and the viability, T/C (second compound 0.000949 µM, first compound 0.3 µM) was 39.9%. For the same compound, the viability, T/C (second compound 0.003 µM, first compound 0.000949 µM) was 109%, the viability, T/C (second compound 0.003 µM, first compound 0.003 µM) was 73.9% and the viability, T/C (second compound 0.003 µM, first compound 0.00949 µM) was 61%. The viability, T/C (second compound 0.003 µM, first compound 0.03 µM) was 40.3%, the viability, T/C (second compound 0.003 µM, first compound 0.0949 µM) was 32.7% and the viability, T/C (second compound 0.003 µM, first compound 0.3 µM) was 35.9%. For the same compound, the viability, T/C (second compound 0.00949 µM, first compound 0.000949 µM) was 107%, the viability, T/C (second compound 0.00949 µM, first compound 0.003 µM) was 86.7% and the viability, T/C (second compound 0.00949 µM, first compound 0.00949 µM) was 46.6%. For the same compound, the viability, T/C (second compound 0.00949 µM, first compound 0.03 µM) was 40.9%, the viability, T/C (second compound 0.00949 µM, first compound 0.0949 µM) was 42.5% and the viability, T/C (second compound 0.00949 µM, first compound 0.3 µM) was 38.2%. For the same compound, the viability, T/C (second compound 0.03 µM, first compound 0.000949 µM) was 108%, the viability, T/C (second compound 0.03 µM, first compound 0.003 µM) was 66.1% and the viability, T/C (second compound 0.03 µM, first compound 0.00949 µM) was 47.4%. The viability, T/C (second compound 0.03 µM, first compound 0.03 µM) was 35.2%, the viability, T/C (second compound 0.03 µM, first compound 0.0949 µM) was 38.3% and the viability, T/C (second compound 0.03 µM, first compound 0.3 µM) was 45.3%. The viability, T/C (second compound 0.0949 µM, first compound 0.000949 µM) was 104%, the viability, T/C (second compound 0.0949 µM, first compound 0.003 µM) was 76.2% and the viability, T/C (second compound 0.0949 µM, first compound 0.00949 µM) was 54.9%. It also gave a viability, T/C (second compound 0.0949 µM, first compound 0.03 µM) of 39.9%, a viability, T/C (second compound 0.0949 µM, first compound 0.0949 µM) of 39% and a viability, T/C (second compound 0.0949 µM, first compound 0.3 µM) of 35.5%. It also gave a viability, T/C (second compound 0.3 µM, first compound 0.000949 µM) of 102%, a viability, T/C (second compound 0.3 µM, first compound 0.003 µM) of 92.3% and a viability, T/C (second compound 0.3 µM, first compound 0.00949 µM) of 55.1%. It also gave a viability, T/C (second compound 0.3 µM, first compound 0.03 µM) of 47%, a viability, T/C (second compound 0.3 µM, first compound 0.0949 µM) of 45.6% and a viability, T/C (second compound 0.3 µM, first compound 0.3 µM) of 42.6%.
